Assays:
[1] = test system: galium; assay: Test C preemergence; format: in vivo, Galium aparine; conditions: for Plant response rating (scale of 0 to 100 where 0 is no effect and 100 is complete control): Galium, preemergence; for Galium plant response rating (0 to 100): Preemergence, visual rating after 13 to 15 d
Description: (§1) Seeds of plant species selected from blackgrass (Alopecurus myosuroides), ryegrass, Italian (Italian ryegrass, Lolium multiflorum), wheat (winter wheat, Triticum aestivum), galium (catchweed bedstraw, Galium aparine), corn (Zea mays), crabgrass, large (large crabgrass, Digitaria sanguinalis), foxtail, giant, (giant foxtail, Setaria faberii), johnsongrass (Sorghum halepense), lambsquarters (Chenopodium album), morningglory (Ipomoea coccinea), nutsedge, yellow (yellow nutsedge, Cyperus esculentus), pigweed (Amaranthus retroflexus), ragweed (common ragweed, Ambrosia elatior), soybean (Glycine max), barnyardgrass (Echinochloa crus-galli), oilseed rape (Brassica napus), waterhemp (common waterhemp, Amaranthus rudis), and velvetleaf (Abutilon theophrasti) were planted into a blend of loam soil and sand and treated preemergence with test chemicals formulated in a non-phytotoxic solvent mixture which included a surfactant. At the same time, plants selected from these crop and weed species and also chickweed (common chickweed, Stellaria media), oat, wild (wild oat, Avena fatua), and kochia (Kochia scoparia), were planted in pots containing Sunshine Redi-Earth® planting medium comprising spaghnum peat moss, vermiculite, starter nutrients and dolomitic limestone and treated with postemergence applications of test chemicals formulated in the same manner. Plants ranged in height from 2 to 18 cm (1- to 4-leaf stage) for postemergence treatments. […] A dash (-) response means no test result.

[2] = test system: foxtail, giant; assay: Test C preemergence; format: in vivo, Setaria faberii; conditions: for Plant response rating (scale of 0 to 100 where 0 is no effect and 100 is complete control): Foxtail, Giant, preemergence; for Foxtail, Giant plant response rating (0 to 100): Preemergence, visual rating after 13 to 15 d
Description: as §1

[3] = test system: ragweed; assay: Test C preemergence; format: in vivo, Ambrosia elatior; conditions: for Ragweed plant response rating (0 to 100): Preemergence, visual rating after 13 to 15 d; for Plant response rating (scale of 0 to 100 where 0 is no effect and 100 is complete control): Ragweed, preemergence
Description: as §1

[4] = test system: oilseed rape; assay: Test C preemergence; format: in vivo, Brassica napus; conditions: for Plant response rating (scale of 0 to 100 where 0 is no effect and 100 is complete control): Oilseed Rape, preemergence; for Oilseed Rape plant response rating (0 to 100): Preemergence, visual rating after 13 to 15 d
Description: as §1

[5] = test system: kochia; assay: Test D preemergence; format: in vivo, Kochia scoparia; conditions: for Plant response rating (0 to 100), Kochia: 16 g ai/ha, 0 is no effect, 100 is complete control; for Plant response rating: Kochia: scale 0 to 100
Description: (§2) Seeds of plant species selected from bluegrass (annual bluegrass, Poa annua), blackgrass (Alopecurus myosuroides), canarygrass (Phalaris minor), chickweed (common chickweed, Stellaria media), galium (catchweed bedstraw, Galium aparine), bromegrass, down (downy bromegrass, Bromus tectorum), Russian thistle (Salsola kali), field poppy (Papaver rhoeas), field violet (Viola arvensis), foxtail, green (green foxtail, Setaria viridis), deadnettle (henbit deadnettle, Lamium amplexicaule), ryegrass, Ital. (Italian ryegrass, Lolium multiflorum), kochia (Kochia scoparia), lambsquarters (Chenopodium album), oilseed rape (Brassica napus), pigweed (Amaranthus retroflexus), chamomile (scentless chamomile, Matricaria inodora), speedwell (bird's-eye speedwell, Veronica persica), barley, spring (spring barley, Hordeum vulgare), wheat, spring (spring wheat, Triticum aestivum), buckwheat, wild (wild buckwheat, Polygonum convolvulus), wild mustard (Sinapis arvensis), oat, wild (wild oat, Avena fatua), radish, wild (wild radish, Raphanus raphanistrum), […]), barley, winter (winter barley, Hordeum vulgare), and wheat, winter (winter wheat, Triticum aestivum) were planted into a silt loam soil and treated preemergence with test chemicals formulated in a non-phytotoxic solvent mixture which included a surfactant. At the same time, these species were planted in pots containing Sunshine Redi-Earth® planting medium comprising spaghnum peat moss, vermiculite, starter nutrients and dolomitic limestone and treated with postemergence applications of the test chemicals formulated in the same manner. Plants ranged in height from 2 to 18 cm (1- to 4-leaf stage). Treated plants and controls were maintained in a controlled growth environment for 14 to 21 d after which time all species were compared to controls and visually evaluated. […] A dash (-) response means no test result.

[6] = test system: barley, spring; assay: Test D preemergence; format: in vivo, Hordeum vulgare; conditions: for Plant response rating (0 to 100), Barley, Spring: 16 g ai/ha, 0 is no effect, 100 is complete control; for Plant response rating: Barley, Spring: scale 0 to 100
Description: as §2

[7] = test system: barley, winter; assay: Test D preemergence; format: in vivo, Hordeum vulgare; conditions: for Plant response rating (0 to 100), Barley, Winter: 16 g ai/ha, 0 is no effect, 100 is complete control; for Plant response rating: Barley, Winter: scale 0 to 100
Description: as §2

[8] = test system: wild mustard; assay: Test D preemergence; format: in vivo, Sinapis arvensis; conditions: for Plant response rating (0 to 100), Mustard, Wild: 16 g ai/ha, 0 is no effect, 100 is complete control; for Plant response rating: Mustard, Wild: scale 0 to 100
Description: as §2

[9] = test system: ryegrass, Ital.; assay: Test D postemergence; format: in vivo, Lolium multiflorum; conditions: scale 0 to 100
Description: as §2

[10] = test system: lambsquarters; assay: Test D postemergence; format: in vivo, Chenopodium album; conditions: scale 0 to 100
Description: as §2

[11] = test system: buckwheat, wild; assay: Test D postemergence; format: in vivo, Polygonum convolvulus; conditions: scale 0 to 100
Description: as §2

[12] = test system: windgrass; assay: Test D postemergence; format: in vivo, Apera spica-venti; conditions: scale 0 to 100
Description: as §2

## FC(F)(F)COc1nc(-c2ccccc2)nn1Cc1ccnc(C(F)(F)F)c1 [Compound 24]
[1]; 125 g ai/ha
  Plant response rating (scale of 0 to 100 where 0 is no effect and 100 is complete control): 50
[1]; 250 g ai/ha
  Plant response rating (scale of 0 to 100 where 0 is no effect and 100 is complete control): 90
[1]; 31 g ai/ha
  Galium plant response rating (0 to 100): 5
[1]; 62 g ai/ha
  Galium plant response rating (0 to 100): 30
[2]; 125 g ai/ha
  Plant response rating (scale of 0 to 100 where 0 is no effect and 100 is complete control): 98
[2]; 250 g ai/ha
  Plant response rating (scale of 0 to 100 where 0 is no effect and 100 is complete control): 100
[2]; 31 g ai/ha
  Foxtail, Giant plant response rating (0 to 100): 80
[2]; 62 g ai/ha
  Foxtail, Giant plant response rating (0 to 100): 95
[3]; 31 g ai/ha
  Ragweed plant response rating (0 to 100): 5
[3]; 62 g ai/ha
  Ragweed plant response rating (0 to 100): 25
[3]; 125 g ai/ha
  Plant response rating (scale of 0 to 100 where 0 is no effect and 100 is complete control): 25
[3]; 250 g ai/ha
  Plant response rating (scale of 0 to 100 where 0 is no effect and 100 is complete control): 55
[4]; 125 g ai/ha
  Plant response rating (scale of 0 to 100 where 0 is no effect and 100 is complete control): 35
[4]; 250 g ai/ha
  Plant response rating (scale of 0 to 100 where 0 is no effect and 100 is complete control): 98
[4]; 31 g ai/ha
  Oilseed Rape plant response rating (0 to 100): 5
[4]; 62 g ai/ha
  Oilseed Rape plant response rating (0 to 100): 30
[5]
  Plant response rating (0 to 100), Kochia: 85
[5]; 62 g ai/ha
  Plant response rating: Kochia: 90
[5]; 125 g ai/ha
  Plant response rating: Kochia: 90
[6]
  Plant response rating (0 to 100), Barley, Spring: 20
[6]; 31 g ai/ha
  Plant response rating: Barley, Spring: 25
[6]; 62 g ai/ha
  Plant response rating: Barley, Spring: 30
[6]; 125 g ai/ha
  Plant response rating: Barley, Spring: 35
[7]
  Plant response rating (0 to 100), Barley, Winter: 15
[7]; 31 g ai/ha
  Plant response rating: Barley, Winter: 15
[7]; 62 g ai/ha
  Plant response rating: Barley, Winter: 25
[7]; 125 g ai/ha
  Plant response rating: Barley, Winter: 25
[8]
  Plant response rating (0 to 100), Mustard, Wild: 65
[8]; 62 g ai/ha
  Plant response rating: Mustard, Wild: 100
[8]; 125 g ai/ha
  Plant response rating: Mustard, Wild: 100
[9]; 16 g ai/ha
  Plant response rating: Ryegrass, Ital.: 15
[9]; 31 g ai/ha
  Plant response rating: Ryegrass, Ital.: 25
[9]; 62 g ai/ha
  Plant response rating: Ryegrass, Ital.: 30
[9]; 125 g ai/ha
  Plant response rating: Ryegrass, Ital.: 40
[10]; 16 g ai/ha
  Plant response rating: Lambsquarters: 65
[10]; 31 g ai/ha
  Plant response rating: Lambsquarters: 75
[10]; 62 g ai/ha
  Plant response rating: Lambsquarters: 80
[10]; 125 g ai/ha
  Plant response rating: Lambsquarters: 85
[11]; 16 g ai/ha
  Plant response rating: Buckwheat, Wild: 50
[11]; 31 g ai/ha
  Plant response rating: Buckwheat, Wild: 55
[11]; 62 g ai/ha
  Plant response rating: Buckwheat, Wild: 60
[11]; 125 g ai/ha
  Plant response rating: Buckwheat, Wild: 70
[12]; 16 g ai/ha
  Plant response rating: Windgrass: 20
[12]; 31 g ai/ha
  Plant response rating: Windgrass: 35
[12]; 62 g ai/ha
  Plant response rating: Windgrass: 45
[12]; 125 g ai/ha
  Plant response rating: Windgrass: 60

## FC(F)(F)COc1nc(-c2ccc(Cl)cc2)nn1Cc1ccnc(C(F)(F)F)c1 [Compound 31]
[1]; 125 g ai/ha
  Plant response rating (scale of 0 to 100 where 0 is no effect and 100 is complete control): 30
[1]; 250 g ai/ha
  Plant response rating (scale of 0 to 100 where 0 is no effect and 100 is complete control): 35
[1]; 31 g ai/ha
  Galium plant response rating (0 to 100): 5
[1]; 62 g ai/ha
  Galium plant response rating (0 to 100): 30
[2]; 125 g ai/ha
  Plant response rating (scale of 0 to 100 where 0 is no effect and 100 is complete control): 98
[2]; 250 g ai/ha
  Plant response rating (scale of 0 to 100 where 0 is no effect and 100 is complete control): 100
[2]; 31 g ai/ha
  Foxtail, Giant plant response rating (0 to 100): 90
[2]; 62 g ai/ha
  Foxtail, Giant plant response rating (0 to 100): 95
[3]; 31 g ai/ha
  Ragweed plant response rating (0 to 100): 45
[3]; 62 g ai/ha
  Ragweed plant response rating (0 to 100): 50
[3]; 125 g ai/ha
  Plant response rating (scale of 0 to 100 where 0 is no effect and 100 is complete control): 65
[3]; 250 g ai/ha
  Plant response rating (scale of 0 to 100 where 0 is no effect and 100 is complete control): 75
[4]; 125 g ai/ha
  Plant response rating (scale of 0 to 100 where 0 is no effect and 100 is complete control): 45
[4]; 250 g ai/ha
  Plant response rating (scale of 0 to 100 where 0 is no effect and 100 is complete control): 85
[4]; 31 g ai/ha
  Oilseed Rape plant response rating (0 to 100): 10
[4]; 62 g ai/ha
  Oilseed Rape plant response rating (0 to 100): 20
[5]
  Plant response rating (0 to 100), Kochia: 80
[5]; 62 g ai/ha
  Plant response rating: Kochia: 90
[5]; 125 g ai/ha
  Plant response rating: Kochia: 95
[6]
  Plant response rating (0 to 100), Barley, Spring: 35
[6]; 31 g ai/ha
  Plant response rating: Barley, Spring: 45
[6]; 62 g ai/ha
  Plant response rating: Barley, Spring: 45
[6]; 125 g ai/ha
  Plant response rating: Barley, Spring: 50
[7]
  Plant response rating (0 to 100), Barley, Winter: 25
[7]; 31 g ai/ha
  Plant response rating: Barley, Winter: 35
[7]; 62 g ai/ha
  Plant response rating: Barley, Winter: 40
[7]; 125 g ai/ha
  Plant response rating: Barley, Winter: 50
[8]
  Plant response rating (0 to 100), Mustard, Wild: 100
[8]; 62 g ai/ha
  Plant response rating: Mustard, Wild: 100
[8]; 125 g ai/ha
  Plant response rating: Mustard, Wild: 100
[9]; 16 g ai/ha
  Plant response rating: Ryegrass, Ital.: 25
[9]; 31 g ai/ha
  Plant response rating: Ryegrass, Ital.: 30
[9]; 62 g ai/ha
  Plant response rating: Ryegrass, Ital.: 55
[9]; 125 g ai/ha
  Plant response rating: Ryegrass, Ital.: 65
[10]; 16 g ai/ha
  Plant response rating: Lambsquarters: 75
[10]; 31 g ai/ha
  Plant response rating: Lambsquarters: 95
[10]; 62 g ai/ha
  Plant response rating: Lambsquarters: 85
[10]; 125 g ai/ha
  Plant response rating: Lambsquarters: 90
[11]; 16 g ai/ha
  Plant response rating: Buckwheat, Wild: 65
[11]; 31 g ai/ha
  Plant response rating: Buckwheat, Wild: 75
[11]; 62 g ai/ha
  Plant response rating: Buckwheat, Wild: 75
[11]; 125 g ai/ha
  Plant response rating: Buckwheat, Wild: 75
[12]; 16 g ai/ha
  Plant response rating: Windgrass: 60
[12]; 31 g ai/ha
  Plant response rating: Windgrass: 70
[12]; 62 g ai/ha
  Plant response rating: Windgrass: 75
[12]; 125 g ai/ha
  Plant response rating: Windgrass: 80

From patent US10681909B2, “Herbicidal triazoles” (FMC Corporation, priority 2014, dated 2020)
